Some test systems named below: BT-549 breast; HCT-116 colon; HL-60(TB) leukemia; HOP-62 NSCLC; HT29 colon; MALME-3M melanoma; MOLT-4 leukemia; RPMI-8226 leukemia; SF-539 CNS; SW-620 colon.
Assay in all cases: NCI-60 cell line screen, 48 h

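96-well plates; 48 h exposure; 5 concentrations. Endpoints by linear interpolation between flanking doses. Not reached: highest tested concentration assigned. Abbreviation: GI50, concentration required for 50% inhibition of growth. At the TGI there is no net growth.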 Where only a bound is given, the exact number is not on record here.

Regarding `Cc1ccc2nc(-c3ccc(N(C)C)c(Br)c3)cn2c1`, the GI50 in the test with BT-549 breast was 63.3 µM; with HCT-116 colon, 7.13 µM; in the test with HL-60(TB) leukemia it was 1.61 µM; with HOP-62 NSCLC, greater than 100 µM; in the test on HT29 colon, 7.02 µM; in the test with MALME-3M melanoma it was greater than 100 µM. Moreover, the GI50 with MOLT-4 leukemia was 3.99 µM; with RPMI-8226 leukemia, 3.93 µM; with SF-539 CNS it was 8.14 µM; in the test on SW-620 colon, 42.3 µM. Also, the TGI in the test on BT-549 breast, in the test with HCT-116 colon, in the test with HL-60(TB) leukemia, in the test with HOP-62 NSCLC, with HT29 colon and with MALME-3M melanoma was greater than 100 µM in each case. The TGI in the test with MOLT-4 leukemia, in the test with RPMI-8226 leukemia, in the test on SF-539 CNS and in the test on SW-620 colon was greater than 100 µM each time.

For the compound `CCC[n+]1cc2cc(OC)c(OC)cc2c2c1-c1cc3c(cc1C2)OCO3`, the GI50 was 0.658 µM in the test on BT-549 breast; 3.39 µM in the test on HCT-116 colon; 11 µM with HL-60(TB) leukemia; 3.92 µM in the test on HOP-62 NSCLC; 5.03 µM in the test on HT29 colon; 1.65 µM in the test on MALME-3M melanoma. Besides, the GI50 in the test on MOLT-4 leukemia was 1.92 µM; in the test on RPMI-8226 leukemia, 2.34 µM; with SF-539 CNS, 0.992 µM; in the test with SW-620 colon, 2.83 µM. Also, the TGI in the test with BT-549 breast was 10.6 µM; with HCT-116 colon, 23.6 µM; in the test on HL-60(TB) leukemia it was greater than 54.1 µM; with HOP-62 NSCLC, 19.7 µM; in the test on HT29 colon, greater than 34.6 µM; in the test on MALME-3M melanoma, 4.01 µM. In addition, the TGI came to 11.4 µM with MOLT-4 leukemia, 16 µM in the test on RPMI-8226 leukemia, 6.34 µM with SF-539 CNS and 23.7 µM with SW-620 colon.

For the compound `CCOc1cc(/C=N\Nc2nnc(C)n2N)c(C)cc1N(CCCl)CCCl`, the GI50 in the test on BT-549 breast is 1.33 µM; in the test on HCT-116 colon it was 0.56 µM; with HL-60(TB) leukemia, 0.351 µM; in the test with HOP-62 NSCLC, 0.631 µM; in the test with HT29 colon, 0.648 µM; in the test with MALME-3M melanoma it was 0.377 µM. Further, the GI50 was 0.876 µM in the test with MOLT-4 leukemia, 0.0978 µM in the test on RPMI-8226 leukemia, 1.29 µM in the test on SF-539 CNS and 0.663 µM with SW-620 colon. Besides, the TGI in the test with BT-549 breast turned out to be 20.6 µM; in the test with HCT-116 colon, 13.2 µM; with HL-60(TB) leukemia it was 3.82 µM; in the test with HOP-62 NSCLC, 22.5 µM; in the test on HT29 colon, 7.17 µM; with MALME-3M melanoma, 6.77 µM. For the same compound, the TGI in the test with MOLT-4 leukemia is 8.58 µM; with RPMI-8226 leukemia, 3.01 µM; with SF-539 CNS, 17.4 µM; in the test on SW-620 colon it was greater than 57.3 µM.

Take `COc1cc(/C=C2\C(=O)Nc3ccc(N(C)C)cc32)cc(OC)c1OC`: the GI50 was 2.49 µM in the test on BT-549 breast; 2.94 µM with HCT-116 colon; 1.35 µM in the test on HL-60(TB) leukemia; 8.48 µM in the test with HOP-62 NSCLC; 2.11 µM in the test on HT29 colon; 3.23 µM with MALME-3M melanoma. In addition, the GI50 is 2.87 µM with MOLT-4 leukemia, 1.11 µM with RPMI-8226 leukemia, 2.44 µM in the test with SF-539 CNS and 2.7 µM with SW-620 colon. For the same compound, the TGI in the test on BT-549 breast is 14.5 µM; in the test on HCT-116 colon, greater than 43.9 µM; with HL-60(TB) leukemia, 5.8 µM; in the test on HOP-62 NSCLC, 50.2 µM; in the test with HT29 colon, greater than 100 µM; with MALME-3M melanoma it was greater than 30.2 µM. In addition, the TGI in the test with MOLT-4 leukemia is greater than 30.9 µM; with RPMI-8226 leukemia, 4.14 µM; in the test on SF-539 CNS, 7.88 µM; with SW-620 colon it was greater than 100 µM.

In the case of `C=C1C(=O)O[C@H]2[C@H]1CC/C(COC(=O)c1cc3cc(Cl)ccc3[nH]1)=C\CC[C@@]1(C)O[C@@H]21`, the GI50 with BT-549 breast is 1.31 µM; in the test with HCT-116 colon it was 0.707 µM; in the test with HL-60(TB) leukemia, 0.44 µM; in the test on HOP-62 NSCLC, 2.22 µM; with HT29 colon, 1.33 µM; in the test on MALME-3M melanoma, 1.63 µM. Besides, the GI50 in the test with MOLT-4 leukemia is 0.557 µM; in the test with RPMI-8226 leukemia it was 0.81 µM; in the test on SF-539 CNS it was 1.44 µM; in the test with SW-620 colon it was 1.4 µM. The TGI in the test on BT-549 breast amounted to 3.2 µM; with HCT-116 colon, 2.06 µM; with HL-60(TB) leukemia, 2.3 µM; with HOP-62 NSCLC, 5.88 µM; with HT29 colon, 3.12 µM; in the test on MALME-3M melanoma, 3.33 µM. Further, the TGI in the test with MOLT-4 leukemia was 3.37 µM; in the test with RPMI-8226 leukemia, 3.28 µM; in the test with SF-539 CNS, 2.92 µM; with SW-620 colon it was 3.37 µM.

On to `O=C(O)c1ccc2c(c1)CCCC(c1ccc(Cl)cc1Cl)=C2c1ccc(O[C@H]2CCN(CCCF)C2)cc1`, for which the GI50 in the test with BT-549 breast was 10 µM; in the test on HCT-116 colon it was 7.98 µM; in the test on HL-60(TB) leukemia, 7.41 µM; with HOP-62 NSCLC, 15 µM; in the test on HT29 colon, 11.9 µM; in the test on MALME-3M melanoma it was 14.7 µM. Also, the GI50 was 8.62 µM in the test on MOLT-4 leukemia, 6.99 µM in the test on RPMI-8226 leukemia, 14.1 µM in the test with SF-539 CNS and 14.3 µM in the test on SW-620 colon. For the same compound, the TGI in the test on BT-549 breast came to 22.9 µM; in the test with HCT-116 colon, 21.7 µM; in the test with HL-60(TB) leukemia, 22.7 µM; in the test with HOP-62 NSCLC it was 33.6 µM; in the test on HT29 colon it was 28.1 µM; in the test with MALME-3M melanoma it was 35.4 µM. For the same compound, the TGI came to 24.2 µM in the test with MOLT-4 leukemia, 27.5 µM with RPMI-8226 leukemia, 27.5 µM in the test on SF-539 CNS and 28.9 µM with SW-620 colon.

As to `O=C1c2cc(Cl)ccc2-c2c1c1ccc([N+](=O)[O-])cc1c(=O)n2CCCBr`, the GI50 with BT-549 breast is 34.2 µM; in the test on HCT-116 colon it was 3.48 µM; with HL-60(TB) leukemia it was 1.26 µM; in the test on HOP-62 NSCLC, 2.46 µM; in the test with HT29 colon it was 12.5 µM; in the test on MALME-3M melanoma, 9.32 µM. For the same compound, the GI50 in the test with MOLT-4 leukemia was 1.84 µM; in the test with RPMI-8226 leukemia, 3.66 µM; in the test with SF-539 CNS it was 3.94 µM; in the test with SW-620 colon, 3.78 µM. Further, the TGI was greater than 100 µM in the test on BT-549 breast; greater than 100 µM in the test on HCT-116 colon; 5.71 µM in the test with HL-60(TB) leukemia; 23 µM in the test with HOP-62 NSCLC; greater than 100 µM in the test with HT29 colon; 82 µM with MALME-3M melanoma. The TGI is 8.04 µM in the test with MOLT-4 leukemia, 96 µM in the test with RPMI-8226 leukemia, greater than 100 µM with SF-539 CNS and greater than 100 µM in the test on SW-620 colon.

Consider `COc1ccc(Cn2cc3c(c2)-c2oncc2CC3)cc1`, for which the GI50 in the test on BT-549 breast was 4.79 µM; in the test on HCT-116 colon, 3 µM; in the test on HL-60(TB) leukemia, 1.72 µM; in the test with HOP-62 NSCLC, 9.64 µM; in the test on HT29 colon it was 3.69 µM; in the test with MALME-3M melanoma, 7.24 µM. Also, the GI50 in the test with MOLT-4 leukemia is 2.82 µM; in the test with RPMI-8226 leukemia, 2.97 µM; in the test on SF-539 CNS, 2.94 µM; with SW-620 colon it was 2.8 µM. The TGI is 66.1 µM in the test on BT-549 breast; greater than 25.7 µM in the test with HCT-116 colon; 8.26 µM in the test on HL-60(TB) leukemia; greater than 100 µM in the test on HOP-62 NSCLC; greater than 64.8 µM in the test on HT29 colon; 54.5 µM in the test with MALME-3M melanoma. For the same compound, the TGI with MOLT-4 leukemia is 22.2 µM; in the test with RPMI-8226 leukemia, greater than 63.8 µM; in the test on SF-539 CNS, 14.9 µM; in the test on SW-620 colon, greater than 100 µM.

With `Cn1c2c(c3ccc(Cl)c(Cl)c31)C(C#N)C1(CCNCC1)NC2=O` (centres undefined), the GI50 is 3.04 µM in the test on BT-549 breast; 1.39 µM with HCT-116 colon; 1.96 µM in the test on HL-60(TB) leukemia; 1.47 µM with HOP-62 NSCLC; 2.02 µM in the test with HT29 colon; 1.42 µM in the test with MALME-3M melanoma. Besides, the GI50 in the test on MOLT-4 leukemia is 1.23 µM; in the test on RPMI-8226 leukemia, 1.7 µM; in the test with SF-539 CNS it was 2.03 µM; in the test on SW-620 colon, 1.65 µM. Besides, the TGI with BT-549 breast amounted to 16.7 µM; in the test on HCT-116 colon, 2.92 µM; in the test on HL-60(TB) leukemia, 3.91 µM; in the test on HOP-62 NSCLC it was 3.93 µM; with MALME-3M melanoma, 3.19 µM; in the test with MOLT-4 leukemia, 2.7 µM. Further, the TGI is 3.87 µM in the test on RPMI-8226 leukemia, 6.34 µM with SF-539 CNS and 3.26 µM with SW-620 colon.

For `COc1ccc(-c2oc3c(OC)c(OC)c(OC)c(OC)c3c(=O)c2OC)cc1OC`, the TGI with BT-549 breast is greater than 100 µM; with HCT-116 colon, greater than 100 µM; in the test on HL-60(TB) leukemia, 46.7 µM; in the test on HOP-62 NSCLC it was 59.8 µM; in the test with HT29 colon, 64.8 µM; in the test with MALME-3M melanoma, 68 µM. Moreover, the TGI in the test on MOLT-4 leukemia was greater than 100 µM; with RPMI-8226 leukemia it was 34 µM; with SF-539 CNS, greater than 100 µM; in the test on SW-620 colon it was greater than 100 µM.

Regarding `Cc1ccc(-c2csc(NC(=O)CN3CCN(c4cc5c(cc4F)c(=O)c(C(=O)O)cn5C4CC4)CC3)n2)cc1`, the GI50 is 0.358 µM in the test with BT-549 breast; 0.348 µM with HCT-116 colon; 1.47 µM in the test on HL-60(TB) leukemia; 0.393 µM in the test on HOP-62 NSCLC; 0.326 µM in the test on HT29 colon; 1.75 µM in the test on MALME-3M melanoma. Besides, the GI50 in the test with MOLT-4 leukemia was 1.23 µM; in the test with RPMI-8226 leukemia, 0.331 µM; in the test with SF-539 CNS, 0.819 µM; in the test on SW-620 colon it was 0.95 µM. Also, the TGI in the test on BT-549 breast came to 10.7 µM; in the test with HCT-116 colon it was 14.8 µM; with HL-60(TB) leukemia, 3.94 µM; with HOP-62 NSCLC, 14.6 µM; in the test on HT29 colon, 6.91 µM; in the test with MALME-3M melanoma it was 7.14 µM. Besides, the TGI is greater than 100 µM with MOLT-4 leukemia, 1.47 µM with RPMI-8226 leukemia, 18.2 µM in the test with SF-539 CNS and greater than 100 µM in the test on SW-620 colon.

For the origin of these results see PubChem BioAssay (NCI).
